From patent publication EP0031801A2, “6-Substituted 4-(2',3'-dichlorophenyl)-2-methyl-1,4-dihydropyridine-3,5-dicarboxylic acid diesters having hypotensive properties as well as process for their preparation and pharmaceutical preparations containing same” (priority 1979, dated 1981)

Experiments:
[1] = test system: isolated portal vein preparation / paced isolated papillary heart muscle preparation; test: Specificity towards smooth muscle relaxation: isolated portal vein versus paced papillary heart muscle in an organ bath; set-up: species or system Wistar rats; settings: "separation" value: averaged difference of -log ED50 portal vein (vasodilatation) and -log ED50 papillary muscle (myocardial depression), transformed into numeric format
Experimental: The specificity towards smooth muscle relaxation was examined as follows: The isolated portal vein preparation of Wistar rats was mounted in an organ bath together with a paced isolated papillary heart muscle preparation of the same animal. The integrated contractile activity of the portal vein smooth muscle and the peak force amplitude of the papillary, myocardial, preparation were recorded. The respective activities during a 30 min control period were set as 100 per cent and the ensuing activities under the influence of an agent under study were expressed as a percentage thereof. The agent was administered at 10 min intervals and the potency for vasodilatation(-log ED50 of-portal vein) and that of myocardial depression (-log ED50 of papillary muscle) were determined by interpolation from the concentration-effect relationships determined in each experiment. A "separation" value was determined for each compound by averaging the differences of the -log ED50 values for vasodilatation and myocardial depression, respectively, obtained in the experiments. This logarithmic separation value was transformed into numeric format and entered into table 2.

[2] = test system: spontaneously hypertensive rats (SHR) of the Okamoto strain; test: Antihypertensive effect in conscious, unrestrained spontaneously hypertensive rats, oral dosing; type: in vivo; settings: Rattus norvegicus; dose giving 20 per cent reduction of mean arterial BP, by interpolation; oral intubation, cumulated doses at 2 hour intervals, suspended in methocel solution
Experimental: The antihypertensive effect of the compounds was tested in conscious, unrestrained spontaneously hypertensive rats (SHR) of the Okamoto strain. The animals had been prepared by prior implantation of indwelling catheters in the abdominal aorta via the femoral artery. Mean arterial blood pressure (MABP) and heart rate were continuously monitored. After a 2 hour control period the compound under study was administered by oral intubation at 2 hour intervals, suspended in methocel solution (5 ml/kg bodyweight). The cumulated doses were […] bodyweight. The antihypertensive response, i.e. the BP reduction to each dose, was expressed as a percentage of the initial control BP level and plotted against the dose on a logarithmic scale. The dose which would give 20 per cent BP reduction was then determined by interpolation.

Structure (SMILES)	Ratio heart vasc. [1]	ED20 [2] [µmol/kg]
CCOC(=O)C1=C(C(C)C)NC(C)=C(C(=O)OC)C1c1cccc(Cl)c1Cl (stereo not drawn) [Example 1, 2-isopropyl-4-(2,3-dichlorophenyl)-6-methyl-1,4-dihydropyridine-3,5-dicarboxylic acid-3-ethylester-5-methylester]	98	2.5
CCOC(=O)C1=C(COC)NC(C)=C(C(=O)OC)C1c1cccc(Cl)c1Cl (stereo not drawn) [Example 2, 2-methoxymethyl-4-(2,3-dichlorophenyl)-6-methyl-1,4-dihydropyridine-3,5-dicarboxylic acid-3-ethylester-5-methylester]	158	2
COC(=O)C1=C(C)NC(C)=C(C(=O)OC)C1c1ccccc1[N+](=O)[O-] [Nifedipin, 2,6-dimethyl-4-(2-nitrophenyl)-1,4-dihydropyridine-3,5-dicarboxylic acid-3,5-dimethylester, reference compound]	15	5
